The text below walks through data of the Deep4Chem optical property database.

This series is described as follows: solvent given as SMILES.

As to `O=c1ccc2cc3ccoc3cc2o1`, the absorption maximum reads like this: (in CC(C)O) 298 nm; (in CCO) 299 nm; (in CCOCC) 294 nm; (in CO) 300 nm; (in O) 303 nm.
As for `CCC12C(=C3C(=C4c5ccc(-c6ccc(C)s6)cc5S(=O)(=O)C41CC)C(F)(F)C(F)(F)C3(F)F)c1ccc(-c3ccc(C)s3)cc1S2(=O)=O` (stereo not given), the absorption maximum runs as follows: (in C1COCCO1) 506 nm; (in CC#N) 507 nm; (in CCCCCC) 489 nm; (in CCO) 508 nm; (in CS(C)=O) 525.37 nm; (in ClC(Cl)(Cl)Cl) 497.35 nm. The compound also displayed an absorption maximum (in ClCCl) of 507.67 nm.
Take `CCN(CC)c1ccc2c(c1)oc(=O)c1cnc3c(c(C)nn3-c3ccccc3)c12`: the absorption maximum (in ClCCl) is reported as 404 nm.
`F[B-]1(F)n2c(ccc2-c2cccs2)C(C(F)(F)F)=C2C=CC(c3cccs3)=[N+]21` yielded an absorption maximum (in CCCCCC) of 665 nm.
For `c1ccc(C[n+]2ccc(-c3cc[n+](Cc4ccccc4)cc3)cc2)cc1`, the absorption maximum (in CC#N) was determined as 260 nm.
As for `CCc1nc2c(nc1CC)C(c1ccccc1)=[N+]1C2=Nc2c3nc(CC)c(CC)nc3c(-c3ccccc3)n2[B-]1(F)F`, the absorption maximum (in C1CCOC1) was found to be 685 nm.
The compound `CCCCCCC(CCCCCC)N1C(=O)c2cccc3c(-c4ccc(OC)cc4)ccc(c23)C1=O` registered an absorption maximum (in CCCCCC) of 354.2 nm; an absorption maximum (in CCCCCCCCCCCCCC) of 356.4 nm; an absorption maximum (in CCCCCCCCCCCO) of 365.6 nm; an absorption maximum (in CCCCO) of 366.2 nm; an absorption maximum (in CN(C)C=O) of 368 nm; an absorption maximum (in Cc1ccccc1) of 364.2 nm. Also, the absorption maximum (in ClC(Cl)Cl) is recorded as 364.8 nm.
Under “in CC#N”, `COc1ccc(C#Cc2cc3ccccc3oc2=O)cc1` had an absorption maximum of 353 nm.
As to `CN(C)c1ccc(-c2cc(-c3cccs3)nc(-c3ccccc3)n2)cc1`, the absorption maximum (in ClC(Cl)Cl) was 371 nm.
The compound `COC(=O)c1c(-c2cc3ccccc3oc2=O)nn(-c2ccccc2)c1C(=O)OC` yielded an absorption maximum (in ClCCl) of 322 nm.
On the same count and under the same terms, the same measure for `CCCc1ccc(C#Cc2cc(C#Cc3ccc(CCC)cc3)c3ccc4c(C#Cc5ccc(N(C)C)cc5)cc(C#Cc5ccc(CCC)cc5)c5ccc2c3c54)cc1`: 473 nm.
`C(#Cc1ccccc1)C1=Cc2ccc3ccccc3c2NB1c1ccccc1` showed an absorption maximum (in C1CCCCC1) of 387 nm.
For the setting “in CCO”, `CCN(CC)c1cc2sc3cc(N(CC)CC)c(F)cc3c(=O)c2cc1F` gave an absorption maximum of 393 nm.
In turn, `N#C/C(=C\c1ccncc1)c1nc(-c2ccc(Cl)cc2)cs1` came in with an absorption maximum (in CC#N) of 357 nm.
With `CCN(CC)c1ccc([N+]2=Cc3ccc4c5c(ccc4c3O[B-]2(c2ccccc2)c2ccccc2)C=[N+](c2ccc(N(CC)CC)cc2)[B-](c2ccccc2)(c2ccccc2)O5)cc1`, the absorption maximum by setting is: (in Cc1ccccc1) 558 nm; (in ClCCl) 552 nm.
Regarding `Cc1ccc(N(c2cc(C(C)(C)C)ccc2C)c2ccc3ccc4c(N(c5ccc(C)cc5C)c5cc(C(C)(C)C)ccc5C)ccc5ccc2c3c54)c(C)c1`, the absorption maximum (in Cc1ccccc1) is 431 nm.
Turning to `COc1ccc(C2=Cc3ccccc3[Si]2(c2ccccc2)c2ccccc2)cc1`, the absorption maximum (in ClCCl) amounted to 350 nm.
Still for that read-out and setting: the result for `CCCCN(CCCC)c1ccc(C#Cc2cc(C#Cc3ccc(C(F)(F)F)cc3)c(C#Cc3ccc(N(CCCC)CCCC)cc3)cc2C#Cc2ccc(C(F)(F)F)cc2)cc1` reads 438 nm.
For the compound `Cc1ccc(-c2ccc(/C=C/c3ccccc3)cn2)nc1`, the absorption maximum (in CC#N) is reported as 335 nm.
Still for that read-out and setting: the result for `C(=C\c1ccccc1)/c1ccccc1` reads 307 nm.
With `c1ccc(-c2nn(-c3ccccc3)c3nc4ccccc4cc23)cc1`, the absorption maximum is recorded as 401.45 nm (in C1CCCCC1); 398.57 nm (in C1CCOC1); 396.83 nm (in CC#N); 396.04 nm (in CC(C)=O); 398.72 nm (in CCCCCl); 398.57 nm (in CCCCOCCCC). Where the note is “in CN(C)C=O”, the absorption maximum is reported as 397.93 nm.
As to `CNc1cccc2c1C(=O)c1ccccc1C2=O`, the absorption maximum by setting is: (in C1CCC2CCCCC2C1) 488 nm; (in C1CCCCC1) 488 nm; (in CC1CCCCC1) 489 nm; (in CC#N) 501 nm; (in CCC(C)CC) 487 nm; (in CCCCCC) 487 nm. The compound also registered an absorption maximum (in CCOC(C)=O) of 497.5 nm.
As for `CC/[NH+]=c1\cc2oc3cc(NCCN)c4ccccc4c3nc-2cc1C`, the absorption maximum was found to be 590 nm (in CCO) and 590 nm (in O).
`C(=C\c1nc2c3ccccc3c3ccccc3c2o1)/c1ccccc1` displayed an absorption maximum (in CC#N) of 364 nm.
For the setting “in ClCCl”, `CCCCCCCCCCCCCCCCCCOC(=O)/C=C/C1=CC2=C(c3c(C)cc(C)cc3C)c3cc(/C=C/C(=O)OCCCCCCCCCCCCCCCCCC)cn3[B-](F)(F)[N+]2=C1` came in with an absorption maximum of 578 nm.
The compound `CCCSC1=[N+]2C(=C(c3ccccc3)c3ccc(SCCC)n3[B-]2(F)F)C=C1SC#N` gave an absorption maximum (in CC#N) of 536 nm; an absorption maximum (in CCCCCC) of 556 nm; an absorption maximum (in CCOC(C)=O) of 545 nm; an absorption maximum (in CO) of 536 nm; an absorption maximum (in ClCCl) of 545 nm.
Consider `COc1ccc(/C=C/C=C/C2=NC3C(=O)NC(N)=NC3N2[C@H]2C[C@H](O)[C@@H](CO)O2)cc1` (stereo not given in full), for which the absorption maximum is, setting by setting: (in C1COCCO1) 354 nm; (in CC#N) 352 nm; (in CO) 342 nm.
Compound `CCCCCCN1C(=O)c2cccc3c(-c4ccc(-c5ccc(-c6ccc7c8c(cccc68)C(=O)N(CCCCCC)C7=O)s5)s4)ccc(c23)C1=O` gave an absorption maximum (in ClC(Cl)Cl) of 428 nm.
On to `C(=C(c1ccccc1)c1ccccc1)c1ccc(-c2cc(-c3ccc(C=C(c4ccccc4)c4ccccc4)cc3)c(-c3ccc(C=C(c4ccccc4)c4ccccc4)cc3)cc2-c2ccc(C=C(c3ccccc3)c3ccccc3)cc2)cc1`, for which the absorption maximum (in C1CCOC1) amounted to 330 nm.
With `CCCCCCC1(CCCCCC)c2cc(-c3nc(-c4ccc5c(c4)C(CCCCCC)(CCCCCC)c4cc(N6c7ccccc7Sc7ccccc76)ccc4-5)nc(-c4ccc5c(c4)C(CCCCCC)(CCCCCC)c4cc(N6c7ccccc7Sc7ccccc76)ccc4-5)n3)ccc2-c2ccc(N3c4ccccc4Sc4ccccc43)cc21`, the absorption maximum (in C1CCOC1) is 400 nm.
For the setting “in Cc1ccccc1”, `Fc1cc(-c2nc(-c3ccccc3)nc(-c3ccccc3)n2)ccc1-n1c2ccccc2c2c3c(ccc21)C1(c2ccccc2-c2ccccc21)c1ccccc1-3` came in with an absorption maximum of 370 nm.
The compound `C=Cc1cc2ccc(OC)cc2oc1=O` came in with an absorption maximum (in CC#N) of 333 nm.
In the case of `O=P1(c2ccccc2)C(c2ccc(C(F)(F)F)cc2)=Cc2ccccc21` (stereo not given), where the note is “in C1CCOC1”, the absorption maximum is reported as 342 nm.
With `COc1ccc(C2=CC(c3ccc(OC)cc3)=[O+][B-](C(C)=O)(C(C)=O)O2)cc1`, the absorption maximum reads like this: (in CC#N) 410 nm; (in ClC(Cl)(Cl)Cl) 405 nm.
Regarding `CN(C)c1ccc(C(=O)Nc2ccc(F)cc2)cc1`, the absorption maximum by setting is: (in C1CCCCC1) 307 nm; (in C1CCOC1) 311 nm; (in CC#N) 314 nm; (in CCOCC) 307 nm.
In the case of `CCC(CC)COC1=CC2=C3c4cc(OCC(CC)CC)c(-c5ccccc5)n4[B-](F)(F)[n+]4nnn(c43)[B-](F)(F)[N+]2=C1c1ccccc1`, the absorption maximum runs as follows: (in C1CCOC1) 691 nm; (in CC#N) 687 nm; (in ClCCl) 700 nm.
As to `c1ccc(-c2cc(-c3ccc(-c4nc(-c5ccccn5)c(-c5ccccn5)[nH]4)cc3)cc(-c3ccccn3)n2)nc1`, the absorption maximum reads like this: (in C1CCOC1) 371 nm; (in CC#N) 380 nm; (in CC(C)=O) 381 nm; (in CCO) 326 nm; (in CCOC(C)=O) 360 nm; (in CN(C)C=O) 337 nm. For the same compound, the absorption maximum (in CO) is reported as 321 nm, the absorption maximum (in CS(C)=O) is 338 nm, the absorption maximum (in ClC(Cl)Cl) came out at 408 nm and the absorption maximum (in ClCCl) stood at 388 nm.
In turn, `Nc1ccc(N2C(=O)c3ccc4c5ccc6c7c(ccc(c8ccc(c3c48)C2=O)c75)C(=O)NC6=O)cc1` registered an absorption maximum (in CN(C)C=O) of 524 nm.
`N#Cc1c(/C=C/c2ccc(N(c3ccccc3)c3ccccc3)cc2)cc(-c2ccccc2)cc1N1CCCCC1`: the absorption maximum (in CS(C)=O) is on record as 398 nm.
`COc1ccc(C2=C(c3ccc(OC)cc3)C(c3ccc(OC)cc3)=[N+]3C2=C(c2ccc(OC)cc2)c2c(-c4ccc(OC)cc4)c(-c4ccc(OC)cc4)c(-c4ccc(OC)cc4)n2[B-]3(F)F)cc1`: under “in C1CCOC1”, the absorption maximum is given as 597 nm.
With `Cc1cc(O)c(C(=O)/C=C/c2ccccc2O)c(=O)o1`, the absorption maximum by setting is: (in CC#N) 359 nm; (in ClCCl) 360 nm.
Turning to `CCCCN1C(=O)c2cccc3c([O-])c(/C=C/c4sc5ccccc5[n+]4CC)cc(c23)C1=O`, the absorption maximum (in C1CCOC1) came to 586.75 nm; the absorption maximum (in CC#N) was found to be 564.61 nm; the absorption maximum (in CC(C)=O) was 572.49 nm; the absorption maximum (in CCO) was found to be 555.68 nm; the absorption maximum (in CO) amounted to 545.83 nm; the absorption maximum (in CS(C)=O) was determined as 566.81 nm. Further, the absorption maximum runs as follows: (in Cc1ccccc1) 607.26 nm; (in ClC(Cl)Cl) 589.53 nm; (in ClCCl) 584.78 nm; (in O) 489.49 nm.
On to `CCN(CC)c1ccc2c(-c3ccccc3C(=O)O)c3c([o+]c2c1)/C(=C/c1ccc(N2CCCC2)s1)CCC3`, for which the absorption maximum (in ClCCl) is given as 738 nm.
In the case of `C#CC1CN2CCC1CC2[C@@H](O)c1ccnc2ccc(OC)cc12` (stereo not given in full), the absorption maximum by setting is: (in C1CCOC1) 332 nm; (in CC#N) 332 nm; (in CCCC#N) 332 nm; (in Cc1ccccc1) 332 nm; (in ClCCl) 333 nm.
`CC1=CC(/C=C/c2ccc(OCCCN=[N+]=[N-])cc2)=[N+]2C1=C(c1ccccc1)c1c(C)cc(C)n1[B-]2(F)F` registered an absorption maximum (in CO) of 564 nm.
